Measurements: ChEMBL document CHEMBL5325439, “Application of an "inhalation by design" approach to the identification and in-vitro evaluation of novel purine based PI3Kδ inhibitors” (Eur J Med Chem, 2023)
In brackets after ≈: the same amount, converted by molar mass. Activity calls are given as the source filed them. No cut-off for these calls is given here.

What was measured:
[1] = target: Phosphatidylinositol 4,5-bisphosphate 3-kinase catalytic subunit alpha isoform (Homo sapiens, UniProt P42336); experiment: Inhibition of recombinant human PI3Kalpha using l-a-phosphatidylinositol sodium salt and l-a-phosphatidyl-L-serine as substrate incubated for 60 mins in presence of ATP by ADP-glo kinase assay
[2] = target: Phosphatidylinositol 4,5-bisphosphate 3-kinase catalytic subunit gamma isoform (Homo sapiens, UniProt P48736); experiment: Inhibition of recombinant human PI3Kgamma using l-a-phosphatidylinositol sodium salt and l-a-phosphatidyl-L-serine as substrate incubated for 60 mins in presence of ATP by ADP-glo kinase assay
[3] = target: Phosphatidylinositol 4,5-bisphosphate 3-kinase catalytic subunit beta isoform (Homo sapiens, UniProt P42338); experiment: Inhibition of recombinant human PI3Kbeta using l-a-phosphatidylinositol sodium salt and l-a-phosphatidyl-L-serine as substrate incubated for 60 mins in presence of ATP by ADP-glo kinase assay
[4] = target: T1, Phosphatidylinositol 4,5-bisphosphate 3-kinase catalytic subunit delta isoform (Homo sapiens, UniProt O00329); experiment: Inhibition of recombinant human PI3Kdelta using l-a-phosphatidylinositol sodium salt and l-a-phosphatidyl-L-serine as substrate incubated for 60 mins in presence of ATP by ADP-glo kinase assay
T1 sequence (O00329 whole entry): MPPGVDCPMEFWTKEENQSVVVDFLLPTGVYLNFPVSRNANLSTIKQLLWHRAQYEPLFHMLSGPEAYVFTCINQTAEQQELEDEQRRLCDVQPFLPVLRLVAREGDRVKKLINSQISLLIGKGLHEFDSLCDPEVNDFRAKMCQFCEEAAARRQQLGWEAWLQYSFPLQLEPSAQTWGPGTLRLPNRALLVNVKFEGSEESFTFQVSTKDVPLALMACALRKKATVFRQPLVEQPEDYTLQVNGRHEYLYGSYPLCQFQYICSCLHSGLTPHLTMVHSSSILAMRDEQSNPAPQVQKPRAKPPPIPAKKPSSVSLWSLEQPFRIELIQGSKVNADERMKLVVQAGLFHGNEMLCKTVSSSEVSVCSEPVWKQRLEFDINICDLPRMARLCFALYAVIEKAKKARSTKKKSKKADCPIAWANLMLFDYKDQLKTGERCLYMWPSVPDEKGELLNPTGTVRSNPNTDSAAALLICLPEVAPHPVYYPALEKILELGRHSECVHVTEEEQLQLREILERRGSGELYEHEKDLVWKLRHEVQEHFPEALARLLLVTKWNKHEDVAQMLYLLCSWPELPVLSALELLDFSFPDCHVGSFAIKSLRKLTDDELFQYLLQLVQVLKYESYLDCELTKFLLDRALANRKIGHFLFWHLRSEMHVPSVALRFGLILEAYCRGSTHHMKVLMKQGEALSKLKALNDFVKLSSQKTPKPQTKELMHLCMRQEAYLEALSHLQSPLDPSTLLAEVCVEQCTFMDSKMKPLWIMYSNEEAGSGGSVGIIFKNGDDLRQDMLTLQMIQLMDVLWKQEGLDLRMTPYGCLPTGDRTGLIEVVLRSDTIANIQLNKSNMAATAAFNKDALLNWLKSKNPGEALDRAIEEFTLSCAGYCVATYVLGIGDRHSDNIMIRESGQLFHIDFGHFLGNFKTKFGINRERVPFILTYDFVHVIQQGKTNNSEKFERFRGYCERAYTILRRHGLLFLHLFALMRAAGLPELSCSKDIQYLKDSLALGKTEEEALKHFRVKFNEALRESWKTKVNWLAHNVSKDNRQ

[5] = Kinetic solubility of compound in PBS at pH 7.4 by HPLC analysis; format: physicochemical; settings: for solubility kinetic: PBS, read-out: Kinetic_solubility; for Kinetic_solubility: buffer
[6] = Microsomal stability in rat liver microsomes assessed as clearance at 0.5 uM incubated for 30 mins; format: ADME, Microsome; settings: read-out: CLH
[7] = Protein binding in rat lung by rapidfire high-throughput MS analysis; format: ADME, tissue-based; settings: read-out: PB (converted)
[8] = Metabolic stability in rat lung S9 fraction assessed as half life measured upto 120 mins in presence of NADPH by LC-MS/MS analysis; format: ADME, subcellular
[9] = Protein binding in rat plasma by rapidfire high-throughput MS analysis; format: ADME, cell-free; settings: read-out: PPB (converted)
[10] = Metabolic stability in human lung S9 fraction assessed as half life measured upto 120 mins in presence of NADPH by LC-MS/MS analysis; format: ADME, subcellular
[11] = Metabolic stability in human hepatocytes assessed as clearance measured per 10^6 cells at 0.5 uM incubated for 180 mins; format: ADME, cell-based, Hepatocyte; settings: read-out: CLH
[12] = Inhibition of PI3Kdelta/AKT pathway in M-CSF stimulated human THP-1 cells assessed as decrease in AKT phosphorylation preincubated for 60 mins followed by M-CSF stimulation and measured after 10 mins by HTRF analysis; settings: THP-1, read-out: pIC50 (converted)
[13] = Protein binding in human plasma by rapidfire high-throughput MS analysis; format: ADME, cell-free; settings: read-out: PPB (converted)
[14] = Microsomal stability in human liver microsomes assessed as clearance at 0.5 uM incubated for 30 mins; format: ADME, Microsome; settings: read-out: CLH
[15] = Metabolic stability in rat hepatocytes assessed as clearance measured per 10^6 cells at 0.5 uM incubated for 180 mins; format: ADME, cell-based, Hepatocyte; settings: read-out: CLH
HepG2 [16] = experiment: Cytotoxicity against human HepG2 cells assessed as reduction in cell viability at 3 to 30 uM incubated for 48 hrs by celltiter-glo assay; format: functional, cell-based; settings: dose 3-30 µM
THP-1 = settings: Homo sapiens, time 70.0 min
HepG2 [17] = experiment: Cytotoxicity against human HepG2 cells assessed as reduction in cell viability at 10 to 30 uM incubated for 48 hrs by celltiter-glo assay; format: functional, cell-based; settings: dose 10-30 µM
[18] = Apparent permeability across basolateral side to apical side in human Caco-2 cells by […] assay; format: ADME, cell-based

Sequence of Phosphatidylinositol 4,5-bisphosphate 3-kinase catalytic subunit alpha isoform (P42336 whole entry, canonical isoform): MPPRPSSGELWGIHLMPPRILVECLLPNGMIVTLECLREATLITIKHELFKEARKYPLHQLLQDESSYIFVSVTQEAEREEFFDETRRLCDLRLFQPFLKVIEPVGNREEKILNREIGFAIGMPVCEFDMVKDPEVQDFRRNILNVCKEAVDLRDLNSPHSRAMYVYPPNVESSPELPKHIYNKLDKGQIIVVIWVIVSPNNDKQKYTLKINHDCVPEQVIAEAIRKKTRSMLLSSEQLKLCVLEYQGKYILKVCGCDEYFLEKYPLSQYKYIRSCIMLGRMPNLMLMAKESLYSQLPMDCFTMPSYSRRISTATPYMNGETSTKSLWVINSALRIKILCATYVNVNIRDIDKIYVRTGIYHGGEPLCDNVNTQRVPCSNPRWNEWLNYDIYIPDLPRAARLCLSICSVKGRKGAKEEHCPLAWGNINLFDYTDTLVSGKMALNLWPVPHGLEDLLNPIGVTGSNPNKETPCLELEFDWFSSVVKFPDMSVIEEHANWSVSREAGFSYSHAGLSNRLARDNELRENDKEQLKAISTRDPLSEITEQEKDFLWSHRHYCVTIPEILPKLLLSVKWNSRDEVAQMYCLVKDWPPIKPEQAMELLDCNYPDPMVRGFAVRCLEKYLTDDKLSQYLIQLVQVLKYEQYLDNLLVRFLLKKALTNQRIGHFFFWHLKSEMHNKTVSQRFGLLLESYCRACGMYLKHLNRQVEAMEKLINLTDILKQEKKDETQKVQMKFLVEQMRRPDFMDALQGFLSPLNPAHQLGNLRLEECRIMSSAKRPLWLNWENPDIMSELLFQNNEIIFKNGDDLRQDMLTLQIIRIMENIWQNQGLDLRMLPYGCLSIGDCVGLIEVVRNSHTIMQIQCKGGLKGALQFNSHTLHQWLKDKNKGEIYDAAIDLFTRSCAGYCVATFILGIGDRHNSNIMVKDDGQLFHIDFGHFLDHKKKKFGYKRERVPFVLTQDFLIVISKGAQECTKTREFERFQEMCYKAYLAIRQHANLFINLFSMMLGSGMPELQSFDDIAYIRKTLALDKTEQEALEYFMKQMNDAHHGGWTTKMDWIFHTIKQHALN
Sequence of Phosphatidylinositol 4,5-bisphosphate 3-kinase catalytic subunit gamma isoform (P48736 whole entry, canonical isoform): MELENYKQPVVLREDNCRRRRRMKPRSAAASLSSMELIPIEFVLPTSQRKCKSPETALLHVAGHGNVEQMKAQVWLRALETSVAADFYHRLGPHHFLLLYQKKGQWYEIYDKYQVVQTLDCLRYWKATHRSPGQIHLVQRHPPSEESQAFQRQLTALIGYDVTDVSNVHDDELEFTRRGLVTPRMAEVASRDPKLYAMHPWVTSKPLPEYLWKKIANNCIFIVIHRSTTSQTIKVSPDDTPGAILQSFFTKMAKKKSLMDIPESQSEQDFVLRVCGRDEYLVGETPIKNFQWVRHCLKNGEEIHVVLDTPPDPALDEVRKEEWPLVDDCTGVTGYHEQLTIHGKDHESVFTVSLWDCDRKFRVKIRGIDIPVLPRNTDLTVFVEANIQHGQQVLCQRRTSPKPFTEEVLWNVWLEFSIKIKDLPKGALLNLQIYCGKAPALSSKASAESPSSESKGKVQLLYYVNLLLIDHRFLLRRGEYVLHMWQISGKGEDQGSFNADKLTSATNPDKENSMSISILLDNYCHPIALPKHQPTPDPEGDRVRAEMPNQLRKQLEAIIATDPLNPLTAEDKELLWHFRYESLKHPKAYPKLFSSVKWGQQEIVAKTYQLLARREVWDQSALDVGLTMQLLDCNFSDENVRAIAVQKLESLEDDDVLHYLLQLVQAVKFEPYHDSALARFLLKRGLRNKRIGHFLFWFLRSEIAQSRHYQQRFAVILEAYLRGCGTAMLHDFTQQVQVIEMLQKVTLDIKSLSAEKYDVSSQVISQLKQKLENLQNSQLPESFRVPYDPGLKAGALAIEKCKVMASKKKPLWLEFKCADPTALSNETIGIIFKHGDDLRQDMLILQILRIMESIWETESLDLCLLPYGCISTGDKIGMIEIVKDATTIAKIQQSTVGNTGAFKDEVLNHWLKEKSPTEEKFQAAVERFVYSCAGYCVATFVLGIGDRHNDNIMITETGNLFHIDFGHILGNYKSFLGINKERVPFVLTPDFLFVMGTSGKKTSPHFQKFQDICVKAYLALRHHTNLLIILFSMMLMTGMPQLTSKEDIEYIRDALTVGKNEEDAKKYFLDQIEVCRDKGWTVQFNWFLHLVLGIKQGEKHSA
Sequence of Phosphatidylinositol 4,5-bisphosphate 3-kinase catalytic subunit beta isoform (P42338 whole entry, canonical isoform): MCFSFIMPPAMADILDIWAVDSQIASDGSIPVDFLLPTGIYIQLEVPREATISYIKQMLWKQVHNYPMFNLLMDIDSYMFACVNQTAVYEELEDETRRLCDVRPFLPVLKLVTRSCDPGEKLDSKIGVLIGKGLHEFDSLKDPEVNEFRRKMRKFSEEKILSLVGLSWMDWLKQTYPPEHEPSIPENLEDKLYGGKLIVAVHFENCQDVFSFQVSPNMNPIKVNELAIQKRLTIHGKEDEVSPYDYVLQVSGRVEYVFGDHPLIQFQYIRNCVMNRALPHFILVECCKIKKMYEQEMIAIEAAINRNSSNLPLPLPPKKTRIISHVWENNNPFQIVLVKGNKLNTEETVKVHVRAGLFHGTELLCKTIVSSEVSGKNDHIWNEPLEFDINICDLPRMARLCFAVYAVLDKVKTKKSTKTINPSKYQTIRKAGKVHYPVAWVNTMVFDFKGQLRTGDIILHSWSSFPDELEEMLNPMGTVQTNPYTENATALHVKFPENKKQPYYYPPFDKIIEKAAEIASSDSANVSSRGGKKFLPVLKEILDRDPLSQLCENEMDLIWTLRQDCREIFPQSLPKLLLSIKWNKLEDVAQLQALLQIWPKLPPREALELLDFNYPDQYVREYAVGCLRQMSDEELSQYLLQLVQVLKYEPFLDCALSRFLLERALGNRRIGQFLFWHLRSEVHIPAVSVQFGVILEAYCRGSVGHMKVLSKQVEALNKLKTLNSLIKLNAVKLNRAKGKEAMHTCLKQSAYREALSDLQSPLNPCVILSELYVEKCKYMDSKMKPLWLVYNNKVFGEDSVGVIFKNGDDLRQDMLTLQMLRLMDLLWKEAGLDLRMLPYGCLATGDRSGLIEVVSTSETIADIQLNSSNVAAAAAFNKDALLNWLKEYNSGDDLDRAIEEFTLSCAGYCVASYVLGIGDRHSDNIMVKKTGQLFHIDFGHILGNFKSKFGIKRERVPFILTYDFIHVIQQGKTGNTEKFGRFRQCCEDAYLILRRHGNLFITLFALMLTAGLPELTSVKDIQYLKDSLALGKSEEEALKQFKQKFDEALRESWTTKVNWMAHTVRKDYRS

| SMILES | Ki [1] [nM] | Ki [2] [nM] | Ki [3] [nM] | Ki [4] [nM] | solubility kinetic [5] [µM] | also measured |
| --- | --- | --- | --- | --- | --- | --- |
| CN(C)Cc1cccc(-c2nc(C(N)=O)c3[nH]c(=O)n(CCc4ccc(Cl)c(Cl)c4)c3n2)c1 | ≥ 20000 | ≥ 20000 | ≥ 20000 | ≥ 20000 |  |  |
| NC(=O)c1nc(-c2cccc3[nH]ncc23)nc2c1[nH]c(=O)n2CCc1ccc(Cl)c(Cl)c1 |  | 1580 |  | 126 |  |  |
| NC(=O)c1nc(-c2cccc(O)c2)nc2c1[nH]c(=O)n2CC1CCOC1 (stereo not given) | 39.8 | 251 | 316 | 39.8 |  |  |
| NC(=O)c1nc(-c2cccc(O)c2)nc2c1[nH]c(=O)n2CCc1cccs1 |  |  |  |  | 405 (≈ 154 µg/mL) |  |
| NC(=O)c1nc(-c2cccc(O)c2)nc2c1[nH]c(=O)n2CCc1ccc2c(c1)OCO2 |  |  |  |  |  | Kinetic_solubility [5]: Not Active |
| NC(=O)c1nc(-c2cccc(O)c2)nc2c1[nH]c(=O)n2-c1ccc(F)cc1 | 79.4 |  |  |  |  |  |
| CC(Cc1ccc(Cl)c(Cl)c1)n1c(=O)[nH]c2c(C(N)=O)nc(-c3cccc(O)c3)nc21 (stereo not given) | 200 | 398 | 6.31 | 3.16 | 414 (≈ 190 µg/mL) | microsomal CLint at 0.5 µM [6]: 50 µL/min/mg; fraction unbound [7]: < 0.01; half-life [8]: > 8.33 h; fraction unbound [9]: < 0.01; half-life [10]: > 8.33 h; hepatocyte CLint at 0.5 µM [11]: 79 µL/min/1e6 cells; IC50 [12]: 100 nM; fraction unbound [13]: < 0.01; microsomal CLint at 0.5 µM [14]: 19 µL/min/mg; hepatocyte CLint at 0.5 µM [15]: 120 µL/min/1e6 cells; Activity (HepG2 [16]): inactive |
| NC(=O)c1nc(-c2cccc(O)c2)nc2c1[nH]c(=O)n2C1CC1c1ccccc1 (stereo not given) | 158 | 158 | 158 | 63.1 |  | Kinetic_solubility [5]: Not Active; pIC50 (THP-1): inactive |
| NC(=O)c1nc(-c2cccc3[nH]ccc23)nc2c1[nH]c(=O)n2CCc1ccc(Cl)c(Cl)c1 | ≥ 20000 |  |  |  |  |  |
| CC(C)c1ccc(CCn2c(=O)[nH]c3c(C(N)=O)nc(-c4cccc(O)c4)nc32)cc1 |  |  |  |  |  | Kinetic_solubility [5]: Not Active |
| NC(=O)c1nc(-c2cccc(O)c2)nc2c1[nH]c(=O)n2CCc1ccc(Cl)c(Cl)c1 |  |  |  |  | 62 (≈ 27.5 µg/mL) |  |
| NC(=O)c1nc(-c2cccc(O)c2)nc2c1[nH]c(=O)n2CC1CCS(=O)(=O)C1 (stereo not given) | 100 | 1260 | 631 | > 20000 |  |  |
| Cc1ccc(O)cc1-c1nc(C(N)=O)c2[nH]c(=O)n(CCc3ccc(Cl)c(Cl)c3)c2n1 |  |  |  |  | 498 (≈ 228 µg/mL) |  |
| NC(=O)c1nc(-c2cccc(O)c2)nc2c1[nH]c(=O)n2-c1ccc(N2CCOCC2)cc1 | 39.8 | 126 | 158 | 50.1 |  |  |
| CC[C@H](Nc1ncnc2[nH]cnc12)c1nc2cccc(F)c2c(=O)n1-c1ccccc1 [IDELALISIB] |  |  |  |  |  | fraction unbound [7]: 0.139; Activity (HepG2 [17]): Active; fraction unbound [9]: 0.148; IC50 [12]: 31.6 nM; fraction unbound [13]: 0.031; Papp B→A [18]: 23.4 ×10⁻⁶ cm/s |
| NC(=O)c1nc(-c2cccc(O)c2)nc2c1[nH]c(=O)n2C1CCN(Cc2ccccc2)C1 (stereo not given) | 126 | 316 | 20 | 5.01 | 178 (≈ 76.6 µg/mL) | microsomal CLint at 0.5 µM [6]: 133 µL/min/mg; fraction unbound [7]: 0.021; half-life [8]: > 8.33 h; fraction unbound [9]: 0.033; half-life [10]: 2.36 h; hepatocyte CLint at 0.5 µM [11]: 55 µL/min/1e6 cells; IC50 [12]: 316 nM; fraction unbound [13]: 0.032; microsomal CLint at 0.5 µM [14]: 70 µL/min/mg; hepatocyte CLint at 0.5 µM [15]: 163 µL/min/1e6 cells; Activity (HepG2 [16]): inactive; Papp B→A [18]: 0.2 ×10⁻⁶ cm/s |
